Measurements as given in patent publication US20070232601A1, “Vla-4 Inhibitor” (priority 2004, published 2007).

Legend:
[1] = molecular target: T1, hα4 and β1 integrins (VLA-4) (Homo sapiens, UniProt P05556+P13612); test: In vitro evaluation: inhibition of binding of CHO cells expressing hα4 and β1 integrins to Eu3+-hVCAM-1 D1D7-IgG; settings: ligand Eu3+-hVCAM-1 D1D7-IgG 2 nM, Ki calculated from IC50
T1 construct: expressed in transfected cells; host or cells: CHO cells
Procedure, shortened: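 CHO cells stably expressing hα4β1 were cultured 2 days, then incubated 1 h at room temperature with Eu3+-hVCAM-1 D1D7-IgG (added as 2 nM solution) and compound in HEPES pH 7.5 with Ca2+, Mg2+ and 4 mM Mn2+, ± 6% human serum albumin. Bound europium was read by time-resolved fluorescence; IC50 was converted to Ki using Scatchard-derived Kd.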

[2] = Dispersibility test in Japanese Pharmacopoeia First and Second Solution; assay type: physicochemical; settings: for Dispersibility in Japanese Pharmacopoeia First Solution: JP1, pH 1.2; for Dispersibility in Japanese Pharmacopoeia Second Solution: JP2, pH 6.8
Protocol: Dispersibility of a test substance in Japanese Pharmacopoeia First Solution (JP1, pH 1.2) and Japanese Pharmacopoeia Second Solution (JP2, pH 6.8) was evaluated.

T1 sequence (P13612 34-1032): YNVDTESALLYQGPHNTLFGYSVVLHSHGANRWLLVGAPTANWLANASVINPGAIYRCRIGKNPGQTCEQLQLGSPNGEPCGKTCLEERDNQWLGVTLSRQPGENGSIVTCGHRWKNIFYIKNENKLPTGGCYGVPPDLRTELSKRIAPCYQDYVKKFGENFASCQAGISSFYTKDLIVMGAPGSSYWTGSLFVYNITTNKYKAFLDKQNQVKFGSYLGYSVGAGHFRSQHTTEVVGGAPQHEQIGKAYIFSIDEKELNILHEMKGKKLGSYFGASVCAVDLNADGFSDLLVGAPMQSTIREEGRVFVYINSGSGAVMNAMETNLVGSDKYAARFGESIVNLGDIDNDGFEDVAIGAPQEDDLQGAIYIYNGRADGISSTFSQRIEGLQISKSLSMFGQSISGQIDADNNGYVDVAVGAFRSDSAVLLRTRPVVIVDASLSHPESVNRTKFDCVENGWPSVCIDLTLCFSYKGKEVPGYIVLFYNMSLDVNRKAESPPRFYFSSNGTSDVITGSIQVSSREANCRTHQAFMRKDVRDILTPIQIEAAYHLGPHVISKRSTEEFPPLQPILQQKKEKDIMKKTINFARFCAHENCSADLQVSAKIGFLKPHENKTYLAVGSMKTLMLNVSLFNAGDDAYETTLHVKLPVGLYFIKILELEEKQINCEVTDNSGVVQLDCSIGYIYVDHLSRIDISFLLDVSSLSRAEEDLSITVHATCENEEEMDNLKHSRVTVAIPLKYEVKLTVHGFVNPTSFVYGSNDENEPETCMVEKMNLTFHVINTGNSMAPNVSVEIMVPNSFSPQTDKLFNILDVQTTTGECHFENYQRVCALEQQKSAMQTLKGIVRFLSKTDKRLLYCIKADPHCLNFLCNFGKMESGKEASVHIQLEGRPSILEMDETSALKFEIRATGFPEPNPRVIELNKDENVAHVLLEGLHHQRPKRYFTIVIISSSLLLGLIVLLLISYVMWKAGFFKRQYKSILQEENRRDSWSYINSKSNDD
T1 sequence (P05556 21-798): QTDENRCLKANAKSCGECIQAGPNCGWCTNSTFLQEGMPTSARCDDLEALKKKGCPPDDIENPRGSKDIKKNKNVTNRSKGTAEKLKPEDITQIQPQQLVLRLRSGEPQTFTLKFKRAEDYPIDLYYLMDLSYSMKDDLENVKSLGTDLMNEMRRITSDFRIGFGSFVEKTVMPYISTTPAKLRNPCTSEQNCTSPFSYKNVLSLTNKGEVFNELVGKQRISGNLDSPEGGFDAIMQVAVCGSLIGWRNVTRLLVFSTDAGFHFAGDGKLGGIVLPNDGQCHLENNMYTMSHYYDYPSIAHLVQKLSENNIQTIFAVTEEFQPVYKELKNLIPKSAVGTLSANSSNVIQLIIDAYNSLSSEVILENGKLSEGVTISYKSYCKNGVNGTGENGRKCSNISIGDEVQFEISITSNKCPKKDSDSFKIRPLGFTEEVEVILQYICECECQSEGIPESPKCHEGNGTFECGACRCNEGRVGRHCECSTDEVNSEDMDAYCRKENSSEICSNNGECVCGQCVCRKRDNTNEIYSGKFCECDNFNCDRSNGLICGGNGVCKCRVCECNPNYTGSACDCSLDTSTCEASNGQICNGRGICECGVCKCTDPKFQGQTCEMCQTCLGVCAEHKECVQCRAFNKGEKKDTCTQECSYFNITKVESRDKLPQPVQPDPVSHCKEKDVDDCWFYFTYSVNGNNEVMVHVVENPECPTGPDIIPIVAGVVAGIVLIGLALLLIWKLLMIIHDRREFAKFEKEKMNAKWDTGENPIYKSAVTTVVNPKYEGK

SMILES	Ki [1] [nM]	Dispersibility in Japanese Pharmacopoeia First Solution [2] [µg/mL]	Dispersibility in Japanese Pharmacopoeia Second Solution [2] [µg/mL]
Cn1cc(C(=O)Nc2cc(Cl)c(CC(=O)N3CCC[C@H]3c3ncc(CCC(=O)O)s3)cc2Cl)c2ccccc21 [Example 26, 3-[2-[1-[2,5-Dichloro-4-(1-methyl-3-indolylcarbonylamino)phenylacetyl]-(2S)-pyrrolidinyl]-5-thiazolyl]propionic acid]	2.5	4	660
COC1CN([C@H]2C[C@@H](c3ncc(CCC(=O)O)s3)N(C(=O)Cc3cc(Cl)c(NC(=O)c4cn(C)c5ccccc45)cc3Cl)C2)C1 [Example 64, 3-[2-[1-[2,5-Dichloro-4-(1-methyl-3-indolylcarbonylamino)phenylacetyl]-(4S)-[1-(3-methoxy)-azetidinyl]-(2S)-pyrrolidinyl]-5-thiazolyl]propionic acid]	3.8	1000	1000
COC1CN([C@H]2C[C@@H](c3ncc(CCC(=O)O)s3)N(C(=O)Cc3cc(Cl)c(NC(=O)c4csc5ccccc45)cc3F)C2)C1 [Example 65, 3-[2-[1-[4-(3-Benzo[b]thiophenylcarbonylamino)-5-chloro-2-fluorophenylacetyl]-(4S)-[1-(3-methoxy)azetidinyl]-(2S)-pyrrolidinyl]-5-thiazolyl]propionic acid]	0.93	1000	1000
COC1CN([C@H]2C[C@@H](c3ncc(CCC(=O)O)s3)N(C(=O)Cc3cc(Cl)c(NC(=O)c4csc5ccccc45)cc3Cl)C2)C1 [Example 66]	0.84	1000	1000
CON(C)[C@H]1C[C@@H](c2ncc(CCC(=O)O)s2)N(C(=O)Cc2cc(Cl)c(NC(=O)c3cn(C)c4ccccc34)cc2F)C1 [Example 127, 3-[2-[1-[5-Chloro-2-fluoro-4-(1-methyl-3-indolylcarbonylamino)phenylacetyl]-(4S)—N,O-dimethylhydroxylamino-(2S)-pyrrolidinyl]-5-thiazolyl]propionic acid]	4.5		
CON(C)[C@H]1C[C@@H](c2ncc(CCC(=O)O)s2)N(C(=O)Cc2cc(Cl)c(NC(=O)c3cn(C)c4ccccc34)cc2Cl)C1 [Example 128, 3-[3-[1-[2,5-Dichloro-4-(1-methyl-3-indolylcarbonylamino)phenylacetyl]-(4S)—N,O-dimethylhydroxylamino-(2S)-pyrrolidinyl]-5-thiazolyl]propionic acid]	6.7		
CON(C)[C@H]1C[C@@H](c2ncc(CCC(=O)O)s2)N(C(=O)Cc2cc(Cl)c(NC(=O)c3csc4ccccc34)cc2F)C1 [Example 129, 3-[2-[1-[4-(3-Benzo[b]thiophenylcarbonylamino)-5-chloro-2-fluorophenylacetyl]-(4S)—N,O-dimethylhydroxylamino-(2S)-pyrrolidinyl]-5-thiazolyl]propionic acid]	2.4		
CON(C)[C@H]1C[C@@H](c2ncc(CCC(=O)O)s2)N(C(=O)Cc2cc(Cl)c(NC(=O)c3csc4ccccc34)cc2Cl)C1 [Example 130, 3-[2-[1-[4-(3-Benzo[b]thiophenylcarbonylamino)-2,5-dichlorophenylacetyl]-(4S)—N,O-dimethylhydroxylamino-(2S)-pyrrolidinyl]-5-thiazolyl]propionic acid]	3.5		
CON(C)[C@H]1C[C@@H](c2ncc(CCC(=O)O)s2)N(C(=O)Cc2cc(Cl)c(NC(=O)c3coc4ccccc34)cc2F)C1 [Example 131, 3-[2-[1-[4-(3-Benzo[b]furanylcarbonylamino)-5-chloro-2-fluorophenylacetyl]-(4S)—N,O-dimethylhydroxylamino-(2S)-pyrrolidinyl]-5-thiazolyl]propionic acid]	5.9		
CON(C)[C@H]1C[C@@H](c2ncc(CCC(=O)O)s2)N(C(=O)Cc2cc(Cl)c(NC(=O)c3coc4ccccc34)cc2Cl)C1 [Example 132, 3-[2-[1-[-(3-Benzo[b]furanylcarbonylamino)-2,5-dichlorophenylacetyl]-(4S)—N,O-dimethylhydroxylamino-(2S)-pyrrolidinyl]-5-thiazolyl]propionic acid]	13		
COC[C@@]1(c2ncc(CCC(=O)O)s2)C[C@H](OC)CN1C(=O)Cc1cc(Cl)c(NC(=O)c2cn(C)c3ccccc23)cc1Cl [Example 133, 3-{2-[(2R,4S)-1-[2-(2,5-dichloro-4-{[(1-methyl-1H-indol-3-yl)carbonyl]amino}phenyl)acetyl]-4-methoxy-2-(methoxymethyl)pyrrolidinyl]thiazol-5-yl}propionic acid]	4.5		

Continued, values first:

Ki [1] [nM]	Dispersibility in Japanese Pharmacopoeia First Solution [2] [µg/mL]	Dispersibility in Japanese Pharmacopoeia Second Solution [2] [µg/mL]	SMILES
0.56	1700	2000	COc1ccccc1Nc1nc2ccc(CC(=O)N3C[C@@H](OC)C[C@H]3c3ncc(CCC(=O)O)s3)c(F)c2o1 [Example 10, 3-[2-[1-[[7-Fluoro-2-(2-methoxyphenylamino)-1,3-benzoxazol-6-yl]acetyl]-(4S)-methoxy-(2S)-pyrrolidinyl]-5-thiazolyl]propionic acid]
0.84	7	330	CO[C@@H]1C[C@@H](c2ncc(CCC(=O)O)s2)N(C(=O)Cc2cc(Cl)c(NC(=O)c3csc4ccccc34)cc2F)C1 [Example 25, 3-[2-[1-[4-[(3-Benzo[b]thienylcarbonyl)amino]-5-chloro-2-fluorophenylacetyl]-(4R)-methoxy-(2S)-pyrrolidinyl]-5-thiazolyl]propionic acid]
1.6	2000	200	O=C(O)CCc1cnc([C@@H]2C[C@H](Oc3cccnc3)CN2C(=O)Cc2cc(Cl)c(NC(=O)c3csc4ccccc34)cc2F)s1 [Example 45, 3-[2-[1-[4-[(3-Benzo[b]thienylcarbonyl)amino]-5-chloro-2-fluorophenylacetyl]-(4S)-(3-pyridyloxy)-(2S)-pyrrolidinyl]-5-thiazolyl]propionic acid]
0.93	>2000	510	O=C(O)CCc1cnc([C@@H]2C[C@H](N3CCCCC3)CN2C(=O)Cc2cc(Cl)c(NC(=O)c3csc4ccccc34)cc2F)s1 [Example 47, 3-[2-[1-[4-[(3-Benzo[b]thienylcarbonyl)amino]-5-chloro-2-fluorophenylacetyl]-(4S)-(1-piperidinyl)-(2S)-pyrrolidinyl]-5-thiazolyl]propionic acid]
0.89	1000	1000	COC1CN([C@H]2C[C@@H](c3ncc(CCC(=O)O)s3)N(C(=O)Cc3cc(Cl)c(NC(=O)c4cn(C)c5ccccc45)cc3F)C2)C1 [Example 63, 3-[2-[1-[5-Chloro-2-fluoro-4-(1-methyl-3-indolylcarbonylamino)phenylacetyl]-(4S)-[1-(3-methoxy)azetidinyl]-(2S)-pyrrolidinyl]-5-thiazolyl]propionic acid]
